Measurements: ChEMBL document CHEMBL5291721, “A preclinical secondary pharmacology resource illuminates target-adverse drug reaction associations of marketed drugs” (Nat Commun, 2023)

Assays:
[1] = biological target: T1, Alpha-2C adrenergic receptor (Homo sapiens, UniProt P18825); type: functional
T1 sequence (P18825 whole entry): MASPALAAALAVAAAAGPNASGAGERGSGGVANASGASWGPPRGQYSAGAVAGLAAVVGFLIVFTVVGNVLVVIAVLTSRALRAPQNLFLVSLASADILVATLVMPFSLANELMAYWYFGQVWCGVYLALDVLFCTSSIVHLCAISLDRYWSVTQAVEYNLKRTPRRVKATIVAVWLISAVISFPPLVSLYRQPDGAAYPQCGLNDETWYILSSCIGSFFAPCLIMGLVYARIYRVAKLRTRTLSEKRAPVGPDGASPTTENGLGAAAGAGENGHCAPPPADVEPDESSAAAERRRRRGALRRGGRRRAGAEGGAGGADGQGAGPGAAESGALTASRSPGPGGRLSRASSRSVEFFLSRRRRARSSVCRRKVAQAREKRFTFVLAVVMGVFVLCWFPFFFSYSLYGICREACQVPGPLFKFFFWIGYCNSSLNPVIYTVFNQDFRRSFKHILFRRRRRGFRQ

Adenosine receptor A3 = biological target: T2, Adenosine receptor A3 (Homo sapiens, UniProt P0DMS8)
T2 sequence (P0DMS8 whole entry): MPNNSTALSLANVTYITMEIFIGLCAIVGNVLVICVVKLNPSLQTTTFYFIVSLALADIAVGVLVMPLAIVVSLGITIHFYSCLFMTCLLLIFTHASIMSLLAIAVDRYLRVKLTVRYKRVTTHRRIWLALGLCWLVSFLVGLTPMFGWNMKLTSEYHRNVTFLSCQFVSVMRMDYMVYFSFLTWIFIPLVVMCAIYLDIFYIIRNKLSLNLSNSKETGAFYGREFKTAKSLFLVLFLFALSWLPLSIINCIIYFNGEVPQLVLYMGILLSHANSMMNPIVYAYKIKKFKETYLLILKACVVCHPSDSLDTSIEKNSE

[2] = biological target: T3, Muscarinic acetylcholine receptor M2 (Homo sapiens, UniProt P08172); type: functional, cell-based
T3 sequence (P08172 whole entry): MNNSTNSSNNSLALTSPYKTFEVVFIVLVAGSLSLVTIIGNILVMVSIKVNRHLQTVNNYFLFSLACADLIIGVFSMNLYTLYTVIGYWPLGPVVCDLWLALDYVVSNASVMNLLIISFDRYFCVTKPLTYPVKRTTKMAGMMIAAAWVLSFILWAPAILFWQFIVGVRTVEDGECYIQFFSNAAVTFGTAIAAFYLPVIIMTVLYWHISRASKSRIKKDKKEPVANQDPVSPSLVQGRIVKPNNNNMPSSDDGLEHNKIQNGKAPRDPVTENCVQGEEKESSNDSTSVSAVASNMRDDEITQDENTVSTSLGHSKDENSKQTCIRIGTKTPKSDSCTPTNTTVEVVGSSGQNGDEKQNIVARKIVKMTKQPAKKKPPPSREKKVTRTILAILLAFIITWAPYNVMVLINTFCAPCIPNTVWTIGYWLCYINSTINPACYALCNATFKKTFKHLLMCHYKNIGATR

Histamine H3 receptor = Histamine H3 receptor (Homo sapiens, UniProt Q9Y5N1)
[3] = biological target: T3, Muscarinic acetylcholine receptor M2; type: functional, cell-based; remark: listed apart in the source
[4] = biological target: T4, Amine oxidase [flavin-containing] A (Homo sapiens, UniProt P21397); type: functional
T4 sequence (P21397 whole entry): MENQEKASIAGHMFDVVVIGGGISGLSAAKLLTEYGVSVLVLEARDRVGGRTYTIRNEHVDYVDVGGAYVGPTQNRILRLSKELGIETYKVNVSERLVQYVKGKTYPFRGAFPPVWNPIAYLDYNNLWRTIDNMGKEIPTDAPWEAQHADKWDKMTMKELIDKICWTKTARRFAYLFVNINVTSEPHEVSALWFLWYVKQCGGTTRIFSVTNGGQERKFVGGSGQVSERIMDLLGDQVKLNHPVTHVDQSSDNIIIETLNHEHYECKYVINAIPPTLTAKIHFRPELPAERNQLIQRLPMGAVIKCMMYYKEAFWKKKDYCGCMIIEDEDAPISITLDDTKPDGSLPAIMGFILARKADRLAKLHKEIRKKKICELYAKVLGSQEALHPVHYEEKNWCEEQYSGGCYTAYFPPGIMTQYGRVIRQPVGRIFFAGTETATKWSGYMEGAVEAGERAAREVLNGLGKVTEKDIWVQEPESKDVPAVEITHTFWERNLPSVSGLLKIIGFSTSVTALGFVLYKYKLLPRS

Progesterone receptor = biological target: T5, Progesterone receptor (Homo sapiens, UniProt P06401); type: functional
T5 sequence (P06401 whole entry): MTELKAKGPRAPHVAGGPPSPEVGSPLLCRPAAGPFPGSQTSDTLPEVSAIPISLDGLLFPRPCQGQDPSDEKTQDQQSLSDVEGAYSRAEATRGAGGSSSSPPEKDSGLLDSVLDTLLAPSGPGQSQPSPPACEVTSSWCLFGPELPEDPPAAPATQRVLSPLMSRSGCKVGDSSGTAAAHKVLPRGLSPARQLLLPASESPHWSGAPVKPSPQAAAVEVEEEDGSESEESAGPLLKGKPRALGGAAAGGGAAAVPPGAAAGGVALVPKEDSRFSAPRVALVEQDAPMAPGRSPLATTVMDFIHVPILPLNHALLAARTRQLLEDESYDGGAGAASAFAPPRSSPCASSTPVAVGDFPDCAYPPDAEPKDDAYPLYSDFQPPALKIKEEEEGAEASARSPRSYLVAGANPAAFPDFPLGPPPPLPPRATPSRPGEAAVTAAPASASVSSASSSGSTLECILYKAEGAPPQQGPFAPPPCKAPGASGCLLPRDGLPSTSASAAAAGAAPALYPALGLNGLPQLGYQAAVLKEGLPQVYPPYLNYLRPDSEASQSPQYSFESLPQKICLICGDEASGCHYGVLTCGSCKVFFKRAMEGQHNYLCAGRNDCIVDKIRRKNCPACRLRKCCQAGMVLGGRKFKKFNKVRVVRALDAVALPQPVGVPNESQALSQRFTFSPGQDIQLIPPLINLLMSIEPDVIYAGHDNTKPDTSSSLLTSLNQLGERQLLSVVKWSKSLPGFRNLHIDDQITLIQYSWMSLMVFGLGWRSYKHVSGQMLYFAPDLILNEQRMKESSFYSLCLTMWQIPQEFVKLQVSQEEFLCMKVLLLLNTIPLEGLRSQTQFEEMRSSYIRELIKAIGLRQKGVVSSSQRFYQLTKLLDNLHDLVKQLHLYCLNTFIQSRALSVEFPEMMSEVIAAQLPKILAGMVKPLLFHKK
Note: assay procedure not described here.

Sequence of Histamine H3 receptor (Q9Y5N1 whole entry): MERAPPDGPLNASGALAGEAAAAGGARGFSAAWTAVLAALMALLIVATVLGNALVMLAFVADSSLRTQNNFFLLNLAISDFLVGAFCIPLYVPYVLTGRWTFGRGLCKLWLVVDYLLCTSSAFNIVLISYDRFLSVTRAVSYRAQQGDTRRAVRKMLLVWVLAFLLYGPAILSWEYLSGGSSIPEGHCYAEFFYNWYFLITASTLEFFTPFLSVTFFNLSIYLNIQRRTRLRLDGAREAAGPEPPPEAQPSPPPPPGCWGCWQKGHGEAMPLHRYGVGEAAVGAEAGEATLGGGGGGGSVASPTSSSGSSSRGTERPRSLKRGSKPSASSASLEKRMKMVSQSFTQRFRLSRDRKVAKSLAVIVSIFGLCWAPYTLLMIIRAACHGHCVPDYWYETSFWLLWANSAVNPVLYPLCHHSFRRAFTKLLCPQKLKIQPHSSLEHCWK

SMILES	AC50 [1]	AC50 (Adenosine receptor A3)	AC50 [2]	AC50 (Histamine H3 receptor)	AC50 [3]	AC50 [4]	AC50 (Progesterone receptor)
C[C@]12C=CC(=O)C=C1CC[C@@H]1[C@@H]2[C@@H](O)C[C@@]2(C)[C@H]1CC[C@]2(O)C(=O)CO [PREDNISOLONE]	> 10 µM	> 30 µM	> 10 µM	> 10 µM	> 10 µM	> 10 µM	–
CCC(=O)c1ccc2c(c1)N(CC(C)N(C)C)c1ccccc1S2 (stereo unspecified) [PROPIOMAZINE]	4.5 µM	> 10 µM	> 10 µM	> 10 µM	1.1 µM	> 10 µM	> 30 µM
CC(C)(C)NCC(O)COc1ccccc1C#N (stereo unspecified) [BUNITROLOL]	> 30 µM	–	> 30 µM	–	> 30 µM	14 µM	–
COc1cccc2c1C(=O)c1c(O)c3c(c(O)c1C2=O)C[C@@](O)(C(=O)CO)C[C@@H]3O[C@H]1C[C@H](N)[C@H](O)[C@H](C)O1 [DOXORUBICIN]	> 30 µM	> 30 µM	> 10 µM	> 30 µM	> 10 µM	> 30 µM	> 30 µM
CC1(C)O[C@@H]2C[C@H]3[C@@H]4CCC5=CC(=O)C=C[C@]5(C)[C@@]4(F)[C@@H](O)C[C@]3(C)[C@]2(C(=O)CO)O1 [TRIAMCINOLONE ACETONIDE]	> 30 µM	> 30 µM	> 30 µM	> 30 µM	> 30 µM	> 30 µM	0.02 µM
COc1ccc(C(=O)c2ccccc2)c(O)c1 [OXYBENZONE]	> 30 µM	–	> 30 µM	–	> 30 µM	> 30 µM	–
C[C@]12CCC(=O)C=C1[C@@H]1C[C@@H]1[C@H]1[C@@H]3[C@@H]4C[C@@H]4[C@@]4(CCC(=O)O4)[C@@]3(C)CC[C@@H]12 [DROSPIRENONE]	> 30 µM	> 30 µM	13 µM	> 30 µM	> 10 µM	> 30 µM	–
CN(C)CCC(O)(c1ccccc1)c1ccccc1Cl (stereo unspecified) [CHLOPHEDIANOL]	> 10 µM	> 10 µM	> 10 µM	> 10 µM	> 10 µM	> 10 µM	> 10 µM
Cc1ccc(O)c([C@H](CCN(C(C)C)C(C)C)c2ccccc2)c1 [TOLTERODINE]	> 10 µM	–	–	> 30 µM	–	> 10 µM	–
N=C(N)NC(=O)c1nc(Cl)c(N)nc1N [AMILORIDE]	> 30 µM	> 30 µM	> 30 µM	> 30 µM	> 30 µM	4.41 µM	> 30 µM
Oc1cc(Cl)ccc1Oc1ccc(Cl)cc1Cl [TRICLOSAN]	> 30 µM	8.9 µM	–	> 30 µM	> 30 µM	> 30 µM	> 30 µM
C[C@]12C=CC(=O)C=C1C(Cl)=C[C@@H]1[C@@H]2[C@@H](O)C[C@@]2(C)[C@H]1CC[C@]2(O)C(=O)CO [CLOPREDNOL]	> 30 µM	13 µM	> 30 µM	> 30 µM	> 30 µM	> 30 µM	2.1 µM
CN(C)[C@@H]1C(O)=C(C(=O)NCN2CCCC2)C(=O)[C@@]2(O)C(O)=C3C(=O)c4c(O)cccc4[C@@](C)(O)[C@H]3C[C@@H]12 [ROLITETRACYCLINE]	> 10 µM	> 10 µM	> 10 µM	> 10 µM	> 10 µM	> 10 µM	> 30 µM
C[C@]12CCC(=O)C=C1C=C[C@@H]1[C@@H]2CC[C@@]2(C)[C@H]1CC[C@@]21CCC(=O)O1 [CANRENONE]	> 30 µM	> 30 µM	> 30 µM	> 30 µM	20 µM	> 30 µM	0.2 µM
CCn1c(=O)c2c(nc(/C=C/c3ccc(OC)c(OC)c3)n2C)n(CC)c1=O [ISTRADEFYLLINE]	> 30 µM	24 µM	> 30 µM	–	> 30 µM	> 30 µM	> 30 µM
CC(C)(Oc1ccc(Cl)cc1)C(=O)OCCOC(=O)c1cccnc1 [ETOFIBRATE]	> 30 µM	> 30 µM	> 30 µM	> 30 µM	> 30 µM	–	> 30 µM
Cc1cn(-c2cc(NC(=O)c3ccc(C)c(Nc4nccc(-c5cnccn5)n4)c3)cc(C(F)(F)F)c2)cn1 [RADOTINIB]	> 30 µM	3.3 µM	> 30 µM	–	> 30 µM	> 30 µM	> 30 µM
COc1ccc(-c2cc(=S)ss2)cc1 [ANETHOLTRITHION]	> 30 µM	7.7 µM	> 30 µM	> 10 µM	> 30 µM	7.4 µM	15 µM
CNC(=O)c1cnn(-c2nc(N)c3ncn([C@@H]4O[C@H](CO)[C@@H](O)[C@H]4O)c3n2)c1 [REGADENOSON ANHYDROUS]	–	3.7 µM	–	–	–	–	–
